Measurements: patent EP4786462A1, “PYRIDONE COMPOUNDS AND PREPARATION METHOD THEREFOR, AND APPLICATION” (Shenzhen Salubris Pharmaceuticals Co., Ltd., priority 2023, dated 2025)

Columns and labels:
[1] = Pharmacokinetic experiment in rats (iv and PO administration); type: in vivo; settings: male, rat, plasma, SD rats, 5 mg/kg; for AUC(0-t): read-out: AUC0-24h
Description: Polyethylene glycol 400 (lot number R22040588, Shanghai Shaoyuan Reagent Co., Ltd.), DMSO (lot number 20200319, Guangdong Guanghua Sci-Tech Co., Ltd.), Sodium Chloride Physiological Solution (lot number 2011110727, Chenxin Pharmaceutical Co., Ltd.). LC-MS instrument (Thermo Fisher Ultimate 3000 UPLC, TSQ QUANTUM ULTRA triple quadrupole mass spectrometer, AB SCIEX 5500+ QTARP).
SD rats: Male, 180-250 g, purchased from Guangdong Vital River Laboratory Animal Technology Co., Ltd.
The test compound powder was accurately weighed and completely dissolved in DMSO. PEG-400 was added, vortexed and sonicated to mix, then sodium chloride physiological solution was added, vortexed and sonicated to mix to form a 0.5 mg/mL solution (DMSO:PEG-400:NS = 5:60:35, V/V/V). For oral gavage administration, the dose was 10 mL/kg; for intravenous administration, the dose was 2 mL/kg.
After intravenous or oral gavage administration to rats, venous blood (200 µL) was collected at 5 min (not collected for oral gavage administration), 15 min, 30 min, 1 h, 2 h, 5 h, 7 h, and 24 h into EDTA-K2-anticoagulated EP tubes. The samples were centrifuged at 10000 rpm for 2 min, and the plasma was collected and stored at -80 °C until analysis.
A certain amount of the test compound was accurately weighed and dissolved in DMSO to 2 mg/mL as a stock solution. An appropriate volume of the compound stock solution was accurately transferred and diluted with acetonitrile to prepare a series of standard solutions. 4 µL of each standard solution was accurately transferred, and 36 µL of blank plasma was added, vortexed to mix, to prepare plasma samples equivalent to plasma concentrations of 1, 3, 5, 10, 30, 100, 300, 1000, 3000 ng/mL. Each concentration was analyzed in duplicate to establish a standard curve. 30 µL of plasma was taken, and 200 µL of an acetonitrile solution containing internal standard propranolol (5 ng/mL) was added. After vortex mixing, the samples were centrifuged at 4000 rpm for 10 min, and the supernatant was taken for LC-MS analysis. The LC-MS detection conditions were as follows: Column: YMC-Triart C18, 50×2.1 mm, S-3µm, 12 nm.
Mobile phase A: water (0.1% formic acid), mobile phase B: acetonitrile, flow rate: 0.5 mL/min, gradient elution as shown in Table 2 below: Table 2
After detecting plasma concentrations by LC-MS, pharmacokinetic parameters in rats after administration were calculated using a non-compartmental model with WinNonlin 6.1 software. Table 3: Pharmacokinetic Parameters of the Compound of the Present Disclosure in Rats (iv and PO Administration)

[2] = biological target: T1, hERG channel (Homo sapiens, UniProt Q12809); assay: Effect on hERG current in hERG-HEK293 cells (automated patch-clamp); type: cell-based; settings: 30 µM compound, peak tail current vs 0.3% DMSO
T1 construct: expressed in transfected cells
T1 sequence (Q12809 whole entry): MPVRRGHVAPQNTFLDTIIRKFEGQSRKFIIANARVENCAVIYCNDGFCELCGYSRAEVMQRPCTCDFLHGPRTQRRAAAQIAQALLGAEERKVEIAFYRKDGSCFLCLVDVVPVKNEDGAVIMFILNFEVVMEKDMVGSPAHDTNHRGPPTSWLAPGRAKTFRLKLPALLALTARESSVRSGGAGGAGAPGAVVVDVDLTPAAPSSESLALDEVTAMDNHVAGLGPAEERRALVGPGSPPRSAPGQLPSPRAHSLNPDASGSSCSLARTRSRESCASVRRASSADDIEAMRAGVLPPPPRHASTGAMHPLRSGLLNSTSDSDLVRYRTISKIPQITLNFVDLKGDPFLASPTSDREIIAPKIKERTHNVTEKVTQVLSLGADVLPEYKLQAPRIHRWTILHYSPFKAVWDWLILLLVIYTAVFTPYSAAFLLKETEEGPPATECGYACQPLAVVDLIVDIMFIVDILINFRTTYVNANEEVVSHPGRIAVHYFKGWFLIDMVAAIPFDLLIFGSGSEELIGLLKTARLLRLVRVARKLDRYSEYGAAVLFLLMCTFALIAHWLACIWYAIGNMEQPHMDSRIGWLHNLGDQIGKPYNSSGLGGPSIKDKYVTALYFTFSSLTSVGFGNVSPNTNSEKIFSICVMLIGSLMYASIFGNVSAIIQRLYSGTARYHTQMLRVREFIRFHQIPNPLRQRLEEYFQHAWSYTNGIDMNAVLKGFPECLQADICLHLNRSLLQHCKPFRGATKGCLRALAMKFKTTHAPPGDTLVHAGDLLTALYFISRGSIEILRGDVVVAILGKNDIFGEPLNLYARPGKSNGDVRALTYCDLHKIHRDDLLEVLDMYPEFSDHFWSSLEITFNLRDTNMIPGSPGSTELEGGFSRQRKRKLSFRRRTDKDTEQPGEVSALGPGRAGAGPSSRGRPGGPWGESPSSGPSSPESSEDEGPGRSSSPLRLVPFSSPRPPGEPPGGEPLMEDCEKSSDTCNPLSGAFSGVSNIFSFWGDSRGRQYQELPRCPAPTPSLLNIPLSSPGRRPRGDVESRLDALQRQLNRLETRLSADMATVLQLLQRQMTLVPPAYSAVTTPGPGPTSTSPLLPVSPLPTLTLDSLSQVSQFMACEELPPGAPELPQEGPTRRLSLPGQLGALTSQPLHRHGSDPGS

| SMILES | AUC(0-t) [1] | hERG Inhibition (%) [2] | further results |
| --- | --- | --- | --- |
| O=c1c(Cl)cccn1-c1ccc(N[C@H]2CC[C@H](Nc3ncc(OC(F)F)cn3)C2)nc1 [Example A9, 3-chloro-6'-(((1S,3S)-3-((5-(difluoromethoxy)pyrimidin-2-yl)amino)cyclopentyl)amino)-2H-[1,3 '-bipyridin]-2-one] | 29400 ng·h/mL |  |  |
| N#Cc1cccn(-c2ccc(N[C@H]3CC[C@H](Nc4ncc(OC(F)F)cn4)C3)nc2)c1=O [Example A13, 6'-(((1S,3S)-3-((5-(difluoromethoxy)pyrimidin-2-yl)amino)cyclopentyl)amino)-2-oxo-2H-[1,3'-bipyridine]-3-carbonitrile] | 42500 ng·h/mL |  | half-life [1]: 6.02 h |
| O=c1c(F)cccn1-c1ccc(N[C@H]2CC[C@H](Nc3ncc(OC(F)F)cn3)C2)nc1 [Example A14, 6'-(((1S,3S)-3-((5-(difluoromethoxy)pyrimidin-2-yl)amino)cyclopentyl)amino)-3-fluoro-2H-[1,3' -bipyridin]-2-one] | 31400 ng·h/mL |  | half-life [1]: 4.42 h |
| O=c1ccccn1-c1cnc(N[C@H]2CC[C@H](Nc3ncc(OC(F)F)cn3)C2)c(F)c1 [Example A17, 6'-(((1S,3S)-3-((5-(difluoromethoxy)pyrimidin-2-yl)amino)cyclopentyl)amino)-5'-fluoro-2H-[1,3 '-bipyridin]-2-one] | 43800 ng·h/mL |  | half-life [1]: 2.97 h |
| O=C(O)c1cccn(-c2ccc(N[C@H]3CC[C@H](Nc4ncc(OC(F)F)cn4)C3)nc2)c1=O [Example A22, 6'-(((1S,3S)-3-((5-(difluoromethoxy)pyrimidin-2-yl)amino)cyclopentyl)amino)-2-oxo-2H-[1,3'-bipyridine]-3-carboxylic acid] |  |  | 30 uM-hERG Inhibition [2]: 19.56 |
| COc1cc(-n2ccccc2=O)cnc1N[C@H]1CC[C@H](Nc2ncc(OC(F)F)cn2)C1 [Example A27, 6'-(((1S,3S)-3-((5-(difluoromethoxy)pyrimidin-2-yl)amino)cyclopentyl)amino)-5'-methoxy-2H-[1,3'-bipyridin]-2-one] | 32000 ng·h/mL |  | half-life [1]: 3.89 h; 30 uM-hERG Inhibition [2]: 40.72 |
| O=c1cccnn1-c1cnc(N[C@H]2CC[C@H](Nc3ncc(OC(F)F)cn3)C2)c(F)c1 [Example A28, 2-(6-(((1S,3S)-3-((5-(difluoromethoxy)pyrimidin-2-yl)amino)cyclopentyl)amino)-5-fluoropyridin-3-yl)pyridazin-3(2H)-one] | 70100 ng·h/mL |  |  |
| O=c1ccccn1-c1cnc(N[C@H]2CC[C@H](Nc3ncc(OC(F)F)cn3)C2)c(CO)c1 [Example A30] |  |  | 30 uM-hERG Inhibition [2]: 33.75 |
| CC(O)c1cccn(-c2ccc(N[C@H]3CC[C@H](Nc4ncc(OC(F)F)cn4)C3)nc2)c1=O (stereo partly drawn) [Example A35, 6'-(((1S,3S)-3-((5-(difluoromethoxy)pyrimidin-2-yl)amino)cyclopentyl)amino)-3-(1-hydroxyethyl)-2H-[1,3'-bipyridin]-2-one] | 60100 ng·h/mL |  | half-life [1]: 14.9 h; 30 uM-hERG Inhibition [2]: 33.81 |
| O=c1ccccn1-c1ccc(N[C@H]2CC[C@H](Nc3nc4ccccn4n3)C2)nc1 [Example C7, 6'-(((1S,3S)-3-([1,2,4]triazolo[1,5-a]pyridin-2-ylamino)cyclopentyl)amino)-2H-[1,3'-bipyridin]-2-one] |  | <50% |  |
| COc1ccn2nc(N[C@H]3CC[C@H](Nc4ccc(-n5ccccc5=O)cn4)C3)nc2c1 [Example C8, 6'-(((1S,3S)-3-((7-methoxy-[1,2,4]triazolo[1,5-a]pyridin-2-yl)amino)cyclopentyl)amino)-2H-[1,3 '-bipyridin]-2-one] |  | <50% |  |
| O=c1ccccn1-c1cnc(N[C@H]2CC[C@H](Nc3nc4ccccn4n3)C2)cn1 [Example C9, 1-(5-(((1S,3S)-3-([1,2,4]triazolo[1,5-a]pyridin-2-ylamino)cyclopentyl)amino)pyrazin-2-yl)pyridi n-2(1H)-one] | 40300 ng·h/mL |  |  |
| O=c1ccccn1-c1ccc(N[C@H]2CC[C@H](Nc3nc4cccnc4s3)C2)nc1 [Example C15] |  | <50% |  |
| O=c1ccccn1-c1cnc(N[C@H]2CC[C@H](Nc3nc4ccccn4n3)C2)c(F)c1 [Example C17, 6'-(((1S,3S)-3-([1,2,4]triazolo[1,5-a]pyridin-2-ylamino)cyclopentyl)amino)-5'-fluoro-2H-[1,3'-bipyridin]-2-one] | 39800 ng·h/mL | <50% |  |
| O=c1ccccn1-c1cnc(N[C@H]2CC[C@H](Nc3nc4nccnc4s3)C2)c(F)c1 [Example C19] |  | <50% |  |
| COc1ccc2nc(N[C@H]3CC[C@H](Nc4ccc(-n5ccccc5=O)cn4)C3)nn2c1 [Example C21] |  | <50% |  |
| O=c1ccccn1-c1cnc(N[C@H]2CC[C@H](Nc3nc4cccnc4s3)C2)c(F)c1 [Example C22] | 37700 ng·h/mL | <50% |  |
| C#Cc1ccc2nc(N[C@H]3CC[C@H](Nc4ccc(-n5ccccc5=O)cn4)C3)nn2c1 [Example C26] |  | <50% |  |
| O=c1ccccn1-c1ccc(N[C@H]2CC[C@H](Nc3nc4ncccn4n3)C2)nc1 [Example C30] |  | <50% |  |

| SMILES | AUC(0-t) [1] | hERG Inhibition (%) [2] | further results |
| --- | --- | --- | --- |
| Cc1ccc2nc(N[C@H]3CC[C@H](Nc4ccc(-n5ccccc5=O)cn4)C3)nn2c1 [Example C32] |  | <50% |  |
| O=c1cccnn1-c1cnc(N[C@H]2CC[C@H](Nc3nc4cccnc4s3)C2)c(F)c1 [Example C34] | 41400 ng·h/mL | <50% |  |
| O=c1cccnn1-c1ccc(N[C@H]2CC[C@H](Nc3nc4cccnc4s3)C2)nc1 [Example C35] | 39700 ng·h/mL | <50% |  |
| O=c1c(Cl)cccn1-c1cnc(N[C@H]2CC[C@H](Nc3nc4ccccn4n3)C2)c(F)c1 [Example C36] |  | <50% |  |
| O=c1cccnn1-c1ccc(N[C@H]2CC[C@H](Nc3nc4ccccn4n3)C2)nc1 [Example C43] |  | <50% |  |
| O=c1cccnn1-c1cnc(N[C@H]2CC[C@H](Nc3nc4ccccn4n3)C2)c(F)c1 [Example C47, 2-(6-(((1S,3S)-3-([1,2,4]triazolo[1,5-a]pyridin-2-ylamino)cyclopentyl)amino)-5-fluoropyridin-3-yl)pyridazin-3(2H)-one] | 53000 ng·h/mL | <50% |  |
| O=c1cccnn1-c1cnc(N[C@H]2CC[C@H](Nc3nc4cccnc4o3)C2)c(F)c1 [Example C48] |  | <50% |  |
| O=c1ccccn1-c1cnc(N[C@H]2CC[C@H](Nc3nc4cccnc4o3)C2)c(F)c1 [Example C53] |  | <50% |  |
| O=c1ccccn1-c1cnc(N[C@H]2CC[C@H](Nc3nc4cccnc4[nH]3)C2)c(F)c1 [Example C56] |  | <50% |  |
| O=c1c(C2CC2)cccn1-c1ccc(N[C@H]2CC[C@H](Nc3nc4cccnc4[nH]3)C2)nc1 [Example C58] |  | <50% |  |
| O=c1c(Cl)cccn1-c1cnc(N[C@H]2CC[C@H](Nc3nc4cccnc4[nH]3)C2)c(F)c1 [Example C61] |  | <50% |  |
| Cn1c(=O)n(-c2ccc(N[C@H]3CC[C@H](Nc4nc5ccccn5n4)C3)nc2)c2cc(C#N)ccc21 [Example C64] |  | <50% |  |
| O=c1c(Cl)ccnn1-c1ccc(N[C@H]2CC[C@H](Nc3nc4ccccn4n3)C2)nc1 [Example C65] |  | <50% |  |
| O=c1cccnn1-c1ccc(N[C@H]2CC[C@H](Nc3nc4cccnc4[nH]3)C2)nc1 [Example C66] |  | <50% |  |
| O=c1c(Cl)ccnn1-c1cnc(N[C@H]2CC[C@H](Nc3nc4ccccn4n3)C2)c(F)c1 [Example C67] |  | <50% |  |
| O=c1cccnn1-c1cnc(N[C@H]2CC[C@H](Nc3nc4cccnc4[nH]3)C2)c(F)c1 [Example C69] |  | <50% |  |
| O=c1ccc2cccnc2n1-c1ccc(N[C@H]2CC[C@H](Nc3nc4ccccn4n3)C2)nc1 [Example C71] |  | <50% |  |
| O=c1ccc2cccnc2n1-c1ccc(N[C@H]2CC[C@H](Nc3nc4cccnc4s3)C2)nc1 [Example C84] |  | <50% |  |
